Results on 8 compounds are retold here after PubChem BioAssay (NCI).

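Cultured in 96-well plates, cells were exposed to test compound for 48 hours across five concentrations. Definition used: TGI = concentration required for complete inhibition of growth.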 Where only a bound is given, the exact number is not on record here.

Common to all, as to assay: NCI-60 cell line screen, 48 h
Assay [1] has as its system HCC-2998 colon.
In assay [2] the test system is SK-MEL-28 melanoma.
The test system of assay [3] is A498 renal.
For assay [4], the system named is KM12 colon.
The test system of assay [5] is HCT-15 colon.
Assay [6] has as its system M14 melanoma.
Assay [7] deals with COLO 205 colon.
The test system of assay [8] is SK-MEL-2 melanoma.
In assay [9] the test system is SF-295 CNS.
Assay [10] deals with MDA-MB-231 breast.
Assay [11] has as its system ACHN renal.
Assay [12] relates to UACC-257 melanoma.
The test system of assay [13] is A549 NSCLC.
In assay [14] the test system is DU-145 prostate.
Assay [15] has as its system SF-268 CNS.
Assay [16] deals with UACC-62 melanoma.
The subject of assay [17] is EKVX NSCLC.

Take `C=C1CC(COc2ccc3c(C)cc(=O)oc3c2)(c2ccccc2)OC1=O` (stereo unspecified): the TGI was 10.1 µM in assay [1]; 8.37 µM in assay [2]; 14.1 µM in assay [3]; above 27.7 µM in [4]; 3.62 µM in assay [5]; 2.66 µM in assay [6]. The TGI stood at 2.76 µM in [7]; 3.65 µM in [8]; 23 µM in [9]; 9.07 µM in assay [10]; 7.3 µM in assay [11]; 3.9 µM in [12]. The TGI is 25 µM in [13]; 6.68 µM in [14]; 23.9 µM in assay [15]; 3.05 µM in assay [16]; 25.2 µM in assay [17].

As to `O=C(CN(c1ccc(S(=O)(=O)O)cc1)c1ccc(S(=O)(=O)O)cc1)Nn1cnc2ccc(S(=O)(=O)N(c3ccc(S(=O)(=O)O)cc3)c3ccc(S(=O)(=O)O)cc3)cc2c1=O`, the TGI in assay [1], in [2], in [3], in assay [4], in [5] and in assay [6] was above 100 µM each time. Moreover, the TGI in assay [7], in [8], in [9], in assay [10], in [11] and in assay [12] was above 100 µM in each case. The TGI in [13], in assay [14], in assay [15], in [16] and in assay [17] was above 100 µM in each case.

Consider `Oc1ccc(-c2cn3cc(C(F)(F)F)ccc3n2)cc1`, for which the TGI is 42.3 µM in assay [1]; above 100 µM in assay [2]; above 100 µM in assay [3]; above 100 µM in [4]; above 100 µM in [5]; above 100 µM in assay [6]. The TGI in assay [7], in assay [8], in assay [9], in assay [10], in assay [11] and in assay [12] was above 100 µM each time. The TGI in [13], in [14], in assay [15], in [16] and in assay [17] was above 100 µM in each case.

Turning to `COC(=O)[C@@H]1Cc2cc(O)c(O)cc2C2(CCN(C)CC2)O1`, the TGI in [1], in assay [2], in [3], in assay [4], in [5] and in assay [6] was above 10 µM throughout. The TGI in assay [7], in assay [8], in [9], in [10], in assay [11] and in [12] was above 10 µM throughout. The TGI in assay [13], in assay [14], in [15], in [16] and in [17] was above 10 µM each time.

Turning to `Cc1cc2c(cc1C)C(=O)/C(=N/Nc1ccc(F)cc1)CCO2`, the TGI in [1], in assay [2], in assay [3], in assay [4], in assay [5] and in assay [6] was above 100 µM throughout. The TGI was above 100 µM in assay [7]; 97 µM in assay [8]; above 100 µM in [9]; above 100 µM in assay [10]; above 100 µM in [11]; above 100 µM in assay [12]. Further, the TGI in assay [13], in assay [14], in assay [15], in assay [16] and in assay [17] was above 100 µM in each case.

For `COC(=O)C1C(C(=O)OC)C1(Br)CBr` (stereo unspecified), the TGI in [1] was above 100 µM; in [2], above 100 µM; in [3] it was above 100 µM; in [4], above 100 µM; in assay [5], 38.7 µM; in [6], above 100 µM. For the same compound, the TGI is 41 µM in assay [7]; above 100 µM in assay [8]; above 100 µM in [9]; above 100 µM in assay [10]; 61.8 µM in assay [11]; above 100 µM in [12]. For the same compound, the TGI in assay [13] was above 100 µM; in assay [14], above 100 µM; in assay [15], above 100 µM; in assay [16], above 100 µM; in assay [17], 90.3 µM.

Turning to `NC(=O)C(Nc1ccc(Cl)cc1)c1cc2cc(Br)ccc2nc1Cl` (stereo unspecified), the TGI in [1], in assay [2], in [3], in assay [4], in assay [5] and in [6] was above 50 µM in each case. Moreover, the TGI in [7], in assay [8], in [9], in assay [10], in [11] and in assay [12] was above 50 µM each time. In addition, the TGI in assay [13], in [14], in assay [15], in assay [16] and in assay [17] was above 50 µM in each case.

`COc1ncnc2c1cnn2Cc1cn(CCCCO)nn1`: the TGI in assay [1], in assay [2], in assay [3], in [4], in assay [5] and in assay [6] was above 100 µM each time. The TGI in [7], in assay [8], in assay [9], in assay [10], in [11] and in [12] was above 100 µM throughout. Besides, the TGI in [13], in assay [14], in assay [15], in [16] and in assay [17] was above 100 µM throughout.
